{"source": "patent EP0249390A2", "about": "“Synthetic peptides related to the HIV glycoprotein gp 120” (Pert, Candace B., priority 1986, dated 1987)", "experiment": "activity of peptide, test not specified", "data": [{"substance": "CYS-THR-THR-ASN-TYR-THR-CYS (CTTNYTC; printed: CYS-THR-THR-ASN-TYR-THR-CYS) [seven amino acid peptide]", "values": [{"measurement": "activity", "value": "active"}]}]}
